Values quoted from earlier work as cited in patent US5527781A, “4-O-(aminoglycosyl)- or 4,6-di-O-(aminoglycosyl)-2,5-dideoxy-5,5-difluorostreptamine derivatives” (Zaidan Hojin Biseibutsu Kagaku Kenkyu Kai, priority 1990, dated 1996).
“Also recorded” adds a separate entry of the source.

Tested on: bacteria
Settings: literature / earlier filings; cited from earlier work

| Compound | antibacterial activity compared with parent (e.g. kanamycin A) |
| --- | --- |
| NC[C@H]1O[C@H](O[C@H]2[C@H](O)[C@@H](O[C@H]3O[C@H](CO)[C@@H](O)[C@H](N)[C@H]3O)[C@H](N)C[C@@H]2N)[C@H](O)[C@@H](F)[C@@H]1O [3'-deoxy-3'-fluorokanamycin A] | improved antibacterial activities, as compared to those of their corresponding parent compounds |
| NC[C@H]1O[C@H](O[C@H]2[C@H](O)[C@@H](O[C@H]3O[C@H](CO)[C@@H](O)[C@H](N)[C@H]3O)[C@H](N)C[C@@H]2N)[C@H](N)[C@@H](F)[C@@H]1O [3'-deoxy-3'-fluorokanamycin B] | improved antibacterial activities, as compared to those of their corresponding parent compounds; also recorded: remarkable antibacterial activities against various gram-positive and gram-negative bacteria, including the resistant bacteria |
| NC[C@H]1O[C@H](O[C@H]2[C@H](O)[C@@H](O[C@H]3O[C@H](CO)[C@H](F)[C@H](N)[C@H]3O)[C@H](N)C[C@@H]2N)[C@H](O)[C@@H](O)[C@@H]1O [4"-deoxy-4"-fluoro-4"-epi-kanamycin A] | lower than that of kanamycin A |
| NC[C@H]1O[C@H](O[C@H]2[C@@H](F)[C@@H](O[C@H]3O[C@H](CF)[C@@H](O)[C@H](N)[C@H]3O)[C@H](N)C[C@@H]2N)[C@H](O)[C@@H](O)[C@@H]1O [5,6"-dideoxy-5,6"-difluoro-5-epi-kanamycin A] | antibacterial activities substantially as high as that of kanamycin A |
| NC[C@H]1O[C@H](O[C@H]2[C@@H](F)[C@@H](O[C@H]3O[C@H](CO)[C@H](O)[C@H](N)[C@H]3O)[C@H](N)C[C@@H]2N)[C@H](O)[C@@H](O)[C@@H]1O [5-deoxy-5-fluoro-5,4"-di-epi-kanamycin A] | antibacterial activities substantially as high as that of kanamycin A |
| NC[C@H]1O[C@H](O[C@H]2[C@H](O)[C@@H](O[C@H]3O[C@H](CF)[C@@H](O)[C@H](N)[C@H]3O)[C@H](N)C[C@@H]2N)[C@H](O)[C@@H](O)[C@@H]1O [6"-deoxy-6"-fluorokanamycin A] | antibacterial activities substantially as high as that of kanamycin A |
